Test results from patent publication US20040087539A1, “Method of treating conditions related to platelet activity” (priority 2003, published 2004).

Tests used:
platelets = experiment: Low-dose α-thrombin-induced aggregation of washed platelets; assay type: cell-based, human
Experimental: Fresh blood from healthy volunteers was anticoagulated with 1/7 volume of ACD (2.5% trisodium citrate, 2% dextrose and 1.5% citric acid). Platelets were washed with CGS buffer (sodium chloride 0.12 M, trisodium citrate 0.0129 M and d-glucose 0.03 M, pH 6.5), resuspended in modified Tyrode's solution and allowed to incubate at 22° C. for 1 hours as previously described. In experiments using platelet-rich plasma (PRP), 1/10 volume of 3.8% trisodium citrate was used as anticoagulant. Platelet aggregation was measured using a turbidometric platelet aggregometer (Chrono-Log) at 37° C. vWF-dependent platelet aggregation was induced by addition of ristocetin or botrocetin to PRP. To differentiate CPIb-IX-mediated platelet agglutination from the second wave of integrin-dependent platelet aggregation, final concentrations of ristocetin were adjusted in each experiment to achieve a two-wave curve of aggregation. Washed platelets were used in platelet aggregation induced by a-thrombin (Enzyme Research Laboratories). To examine the effects of PKG, 100 μM of membrane permeable cGMP analogs, 8-bromo-cGMP or 8-dibutyl-cGMP (Calbiochem), or 1 μM sildenafil citrate (Pfizer) and added simultaneously with subthreshold concentrations of agonists. PKG inhibitors KT5823 (2 pM) and Rp-8PCPT-cGMP (0.2 mM) were preincubated with platelets at 37° C. for 5 minutes before addition of agonists.
In FIG. 5A, washed platelets were preincubated with 40 pg/mi anti-GPIba monoclonal antibody SZ2, integrin inhibitor RGDS, or inhibitors of PKG, KT5823 (2 μM) or Rp-8pCPT-cGMP (0.2 mM) (Calbiochem), for 5 min. Platelets also were preincubated with DMSO (vehicle for KT5823), KT5720 or buffer (Control) as controls. α-Thrombin (0.05 units/mi) then was added to induce platelet aggregation. Nonspecific JgG and RGES peptides also were examined as additional controls, but had no effect (not shown). In FIG. 5B, a subthreshold dose of thrombin was added to platelets immediately followed by addition of PKG activator 8-bromo-cGMP or buffer (Control). Shown in the figure are the representative results of at least three experiments.
In FIG. 6A, increasing concentrations of sildenafil or control 0.15 M NaCl solution were added to platelet-rich plasma followed by a subthreshold concentration of ristocetin. Platelet aggregation was recorded using a platelet aggregometer. In FIG. 6B, sildenafil or control buffer was added to washed platelets followed by addition of subthreshold doses of thrombin to induce platelet aggregation. It was noted that platelet aggregation occurs in the presence of sildenafil. The figure includes the representative results of at least three experiments.
In FIG. 7A, PRP was preincubated with 0.1 mM 8-bromo-cGMP for increasing lengths of time at 37° C. as indicated. The vWF modulator, ristocetin (1.25 mg/ml), then was added to induce platelet aggregation in a turbidometric platelet aggregometer. In FIG. 7B, PRP was preincubated with a high concentration of 8-bromo-cGMP (1 mM) for 5 minutes. Ristocetin then was added to induce platelet aggregation. In FIGS. 7C and 7D, washed platelets in modified Tyrode's solution were preincubated with 1 mM 8-bromo-cGMP (C), or various concentrations of 8-pCPT-cGMP (D) at 37° C. for 5 minutes. Thrombin (0.05 u/ml) then was added to induce platelet aggregation.

[1] = system: 123 cells (CHO cells expressing recombinant human GPIb-IX and integrin αIIbβ3); experiment: vWF-induced GPIb-IX-mediated activation of integrin αIIbβ3 (Oregon green-labeled fibrinogen binding, flow cytometry); assay type: cell-based, Chinese Hamster; conditions: PKG-transfected 123 cells, 12 μg/ml vWF, 1 mg/ml ristocetin, FIGS. 1B, 1C
Experimental: Human PKG Iβ cDNA was cloned by RT-PCR, using human platelet mRNA as templates. Sequence of the human PKG Iβ cDNA fragment matches the published sequence. Cloning of human PKG Iα cDNA was described previously. PKG Iα or Iβ in pCDNA3.1/Zeo+vector was transfected into 123 cells (CHO cells expressing recombinant human CPIb-IX and integrin αIIbβ3 using Lipofectamine plus (BRL). Expression of PKG was assessed by Western blotting with an antihuman PKG I antibody (Calbiochem). The kinase activity of the expressed enzymes was measured in cell homogenates using BPDEtide (Calbiochem) as substrate as detailed previously. vWF-induced GPIb-IX-mediated activation of integrin αIIbβ3 was examined by flow cytometry analysis of Oregon green-labeled fibrinogen binding to integrln αIIbβ3 as described previously. Briefly, cells were detached from tissue culture plate using 0.5 mM EDTA, washed at 4° C. and resuspended in modified Tyrode's solution. Cells then were incubated with Oregon green-labeled fibrinogen (20 μg/ml) in the presence of ristocetin and vWF at 22° C. for 30 minutes, and analyzed by FACScalibur flow cytometer. Nonspecific binding of fibrinogen was estimated by measuring fibrinogon binding in the presence of a specific integrin inhibitor RGDS (1 mM) (see Refs. 13 and 43-45).
In FIG. 1A, CHO cells expressing GPLb-JX and integrin αIIbβ3 (123 cells) were transfected with cDNA encoding PKGIα or vector. Expression of PKG Ia in 123 cells was detected by Western blotting with an anti-human PKG I antibody (Insert), and recombinant PKG activity was determined in the absence or presence of 20 μM 8-bromo-cGMP as previously described. Results are expressed as mean +SD (n=3). For FIGS. 1B and 1C, reconstitution of GPIb-IX-mediated integrin activation in CHO cells was published (see Ref. 13). […] Cells were analyzed by flow cytometry. Quantitative results from three experiments are expressed as fibrinogen binding indices (total bound fluorescence (Fg)/nonspecifically bound fluorescence (Fg+RGDS)), and shown in FIG. 1B (mean ±SD).

With `Nc1nc2c(nc(Br)n2[C@@H]2O[C@@H]3COP(=O)(O)O[C@H]3[C@H]2O)c(=O)[nH]1` [8-bromo-cGMP] the “GPIb-IX-dependent platelet activation, agent added simultaneously with thrombin” value (platelets; 8-bromo-cGMP 100 μM, FIG. 5) was “promoted”, the “platelet aggregation together with a subthreshold concentration of thrombin” value (platelets; washed platelets, thrombin 0.02 units/ml, FIGS. 5B, 6B) was “induced platelet aggregation” and the “vWF-induced fibrinogen binding to integrin” value [1] was “further increased”. The “vWF-induced fibrinogen binding to integrin” value ([1]; row) was “dramatically increased”.
